In article PMC5225183, “Fingerprinting of neurotoxic compounds using a mouse embryonic stem cell dual luminescence reporter assay” (Archives of Toxicology, 2016):
Like-named read-outs stand apart in the source and are kept apart here. Marks after values point to notes of the source that are not given here.

Experiments:
[1] = Table S1, three classes; ref per compound in the footnotes of Table S1; cited from earlier work
EF1α promoter = details: for LOAEL Neurons EF1α: ESC-derived neurons; for LOAEL Neurons EF1α / LOAEL ESC EF1α: 48 h exposure; for LOAEL ESC EF1α: undifferentiated ESCs
In short: (§1)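 Mouse CGR8 ESCs carrying Tα1-firefly and EF1α-Renilla luciferase reporters, treated either undifferentiated (48 h exposure after 24 h plating) or as MS5-induced neurons (exposure day 6 to day 8). Dual-luciferase luminescence expressed as % promoter activity versus DMSO control wells; 5 µM methylmercury as positive control.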

[2] = tested on: Tubulin α1 (Tα1) promoter; details: undifferentiated ESCs, 48 h exposure; lowest tested concentration with statistically significant decrease
In short: as §1

[3] = cited from earlier work
CGR8-2Luc ESCs = tested on: CGR8-2Luc ESCs
In short: (§2)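 Mouse CGR8-2Luc ESCs in LIF-containing medium were exposed to compounds for 48 h; ESC-derived neurons (MS5 co-culture, replated day 5 in N2/bFGF medium) were exposed from day 6 to day 8. Read-outs: Tα1-FLuc, EF1α-RLuc and PI DNA content as % of control. LOAEL = lowest concentration giving a significant decrease versus baseline.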

ESC-derived neurons = tested on: ESC-derived neurons
In short: as §2

[4] = undifferentiated ESCs, 48 h exposure, PI assay (cytotoxicity)
[5] = ESC-derived neurons, 48 h exposure, PI assay (cytotoxicity)

Molecule	class based on clinical evidence for neurotoxicity [1]	effect on general promoter activity in neurons (EF1α promoter)	LOAEL Neurons EF1α (EF1α promoter) [µM]	LOAEL ESC EF1α (EF1α promoter) [µM]	LOAEL ESC Tα1 [2] [µM]	Concentration in humans ([3]; ref Zimmer et al. ([2014]))	LOAEL ESC DNA (CGR8-2Luc ESCs) [µM]	LOAEL Neurons DNA (ESC-derived neurons) [µM]	LOAEL ESC DNA (CGR8-2Luc ESCs; [4]) [µM]	LOAEL Neurons DNA (ESC-derived neurons; [5]) [µM]	Concentration in humans ([3]; ref International Programme on Chemical Safety)	Concentration in humans ([3]; ref Linden et al. ([2007]))	cytotoxicity on ESCs (CGR8-2Luc ESCs)	Concentration in humans (human exposure concentration) ([3]; human exposure concentration, ref Zimmer et al. ([2014]))	Human exposure concentrations ([3]; ref Zimmer et al. ([2014])) [pM]	effect on cell number in neurons (ESC-derived neurons)
Erythropoietin: EpoR agonist controlling erythropoiesis and neurogenesis; Peptide/Protein	Non-neurotoxic	selectively increased	>0.238	>0.238	>0.238	0.0003^k µM	>0.238	>0.238								
C[C@]12CC[C@H](O)CC1=CC[C@@H]1[C@@H]2CC[C@]2(C)C(c3cccnc3)=CC[C@@H]12 [Abiraterone]	Possibly (developmental)		2	>2	>2	0.65^k µM			>2	>2						
Nc1ccccc1NC(=O)c1ccc(CNC(=O)OCc2cccnc2)cc1 [Entinostat]		enhanced	>50	5	50				5	50						
CC(C)NCC(O)COc1cccc2ccccc12 (stereo not drawn) [Propranolol]	Non-neurotoxic		>50	50	50				>50	50	0.12–0.19^d µM					
COc1ccc2[nH]c([S+]([O-])Cc3ncc(C)c(OC)c3C)nc2c1 (stereo not drawn) [Omeprazole]	Non-neurotoxic		>50	>50	>50				>50	>50		0.8^b µM				
COC(=O)c1ccc2c(c1)NC(=O)/C2=C(\Nc1ccc(N(C)C(=O)CN2CCN(C)CC2)cc1)c1ccccc1 [Nintedanib]	Possibly (developmental)		5	5	0.5	0.074^k µM			5	5						
[Br][Hg][Br] [Mercury bromide]	Possibly (developmental)		>10	5	5				5	>10			highly cytotoxic			
Brc1ccc(Oc2cc(Br)c(Br)cc2Br)c(Br)c1 [PBDE-99]	Well-established (developmental)		5	>50	50				>50	5				97*10^−6k (human exposure concentration) µM	5 to 100	moderate cell number decrease
COC1=C2C[C@@H](C)C[C@H](OC)[C@H](O)[C@@H](C)/C=C(\C)[C@H](OC(N)=O)[C@@H](OC)/C=C\C=C(/C)C(=O)NC(=CC1=O)C2=O [Geldanamycin]	Possibly (developmental)		0.05	0.5	0.005	0.8^k µM			0.05	0.05						
Oxytocin	Non-neurotoxic		>0.1	>0.1	>0.1	0.002^k µM			>0.1	>0.1						
